# Source: US7183267B2, “β-lactamase inhibitors and methods of use thereof” (priority 2003, dated 2007)
# Test system: methicillin resistant S. aureus ATCC 33591 (MRSA-ATCC)
# Experiment: Matrix system: oxacillin plus β-lactamase inhibitor, MRSA-ATCC
# Format: cell-based
# Conditions: for MIC of oxacillin: matrix study
# Method: To each well of a 96 well microtiter plate was added 47.5 μl of MHB. A volume of 2.5 μl of each dilution of oxacillin was then transferred to appropriate wells containing the medium. All wells, except the sterility control wells, were then inoculated with 50 μl of a diluted cell suspension to give a final volume of 100 μl and a final cell density of 5×10^4 CFU/well. The volume in the sterility control wells was adjusted to 100 μl with MHB. A sterile pipette tip was used to mix the contents of each well (one tip was used going from the low to the high concentration in the same column). The microtiter plates were covered with the lids and were placed in large Stratagene Big Blue plates (Cat. # 400041). Four large kimwipes moistened with tap water were placed near the edges of the Stratagene plates to prevent evaporation of the medium. The microtiter plates were incubated for at least 24 hours at 35° C. The plates were then evaluated for growth in each well. Controls included: medium sterility and negative control (medium and bacteria only).
# A numerical code was used to evaluate the extent of growth as indicated below. • 0: absence of growth • 1: barely visible (faint) growth • 2: fair growth but less than the negative solvent control • 3: growth is equivalent to the negative solvent control.
# The lowest dose at which no visible growth is observed was determined to be the MIC value.
# The effect of the four compounds of the present invention on oxacillin resistance of the MRSA strains was determined using a matrix system. The β-lactamase inhibitors were tested at 5 doses against up to eleven concentrations of oxacillin. […] A 96-well microtiter plate was used for the matrix system. The procedure was identical to that described above for the MIC determination, with the exception that both oxacillin and one each of the β-lactamase inhibitors was added, 2.5 μl each, to the wells prior to addition of the test organisms.
# Matrix Study:Oxacillin and Compound FL201 with MRSA-ATCC
# Matrix Study: Oxacillin and Compound Fl202 with MRSA-ATCC
smiles,measurement,setting,value
COC(=O)c1cc(B(O)O)cc([N+](=O)[O-])c1 [Compound F1202],MIC of oxacillin,with compound 1 μg/ml,32 µg/mL
same,MIC of oxacillin,with compound 2 μg/ml,16 µg/mL
same,MIC of oxacillin,with compound 4 μg/ml,1 µg/mL
same,MIC of oxacillin,with compound 8 μg/ml,0.125 µg/mL
same,MIC of oxacillin,with compound 16 μg/ml,<0.064 µg/mL
same,extent of growth (numerical code),oxacillin 0 μg/ml + compound 1 μg/ml,3
same,extent of growth (numerical code),oxacillin 0 μg/ml + compound 2 μg/ml,2
same,extent of growth (numerical code),oxacillin 0 μg/ml + compound 4 μg/ml,2
same,extent of growth (numerical code),oxacillin 0 μg/ml + compound 8 μg/ml,1
same,extent of growth (numerical code),oxacillin 0 μg/ml + compound 16 μg/ml,1
same,extent of growth (numerical code),oxacillin 0.064 μg/ml + compound 1 μg/ml,3
same,extent of growth (numerical code),oxacillin 0.064 μg/ml + compound 2 μg/ml,3
same,extent of growth (numerical code),oxacillin 0.064 μg/ml + compound 4 μg/ml,2
same,extent of growth (numerical code),oxacillin 0.064 μg/ml + compound 8 μg/ml,1
same,extent of growth (numerical code),oxacillin 0.064 μg/ml + compound 16 μg/ml,0
same,extent of growth (numerical code),oxacillin 0.125 μg/ml + compound 1 μg/ml,3
same,extent of growth (numerical code),oxacillin 0.125 μg/ml + compound 2 μg/ml,3
same,extent of growth (numerical code),oxacillin 0.125 μg/ml + compound 4 μg/ml,2
same,extent of growth (numerical code),oxacillin 0.125 μg/ml + compound 8 μg/ml,0
same,extent of growth (numerical code),oxacillin 0.125 μg/ml + compound 16 μg/ml,0
same,extent of growth (numerical code),oxacillin 0.25 μg/ml + compound 1 μg/ml,3
same,extent of growth (numerical code),oxacillin 0.25 μg/ml + compound 2 μg/ml,2
same,extent of growth (numerical code),oxacillin 0.25 μg/ml + compound 4 μg/ml,1
same,extent of growth (numerical code),oxacillin 0.25 μg/ml + compound 8 μg/ml,0
same,extent of growth (numerical code),oxacillin 0.25 μg/ml + compound 16 μg/ml,0
same,extent of growth (numerical code),oxacillin 0.5 μg/ml + compound 1 μg/ml,3
same,extent of growth (numerical code),oxacillin 0.5 μg/ml + compound 2 μg/ml,2
same,extent of growth (numerical code),oxacillin 0.5 μg/ml + compound 4 μg/ml,1
same,extent of growth (numerical code),oxacillin 0.5 μg/ml + compound 8 μg/ml,0
same,extent of growth (numerical code),oxacillin 0.5 μg/ml + compound 16 μg/ml,0
same,extent of growth (numerical code),oxacillin 1 μg/ml + compound 1 μg/ml,3
same,extent of growth (numerical code),oxacillin 1 μg/ml + compound 2 μg/ml,2
same,extent of growth (numerical code),oxacillin 1 μg/ml + compound 4 μg/ml,0
same,extent of growth (numerical code),oxacillin 1 μg/ml + compound 8 μg/ml,0
same,extent of growth (numerical code),oxacillin 1 μg/ml + compound 16 μg/ml,0
same,extent of growth (numerical code),oxacillin 2 μg/ml + compound 1 μg/ml,2
same,extent of growth (numerical code),oxacillin 2 μg/ml + compound 2 μg/ml,2
same,extent of growth (numerical code),oxacillin 2 μg/ml + compound 4 μg/ml,0
same,extent of growth (numerical code),oxacillin 2 μg/ml + compound 8 μg/ml,0
same,extent of growth (numerical code),oxacillin 2 μg/ml + compound 16 μg/ml,0
same,extent of growth (numerical code),oxacillin 4 μg/ml + compound 1 μg/ml,2
same,extent of growth (numerical code),oxacillin 4 μg/ml + compound 2 μg/ml,2
same,extent of growth (numerical code),oxacillin 4 μg/ml + compound 4 μg/ml,0
same,extent of growth (numerical code),oxacillin 4 μg/ml + compound 8 μg/ml,0
same,extent of growth (numerical code),oxacillin 4 μg/ml + compound 16 μg/ml,0
same,extent of growth (numerical code),oxacillin 8 μg/ml + compound 1 μg/ml,2
same,extent of growth (numerical code),oxacillin 8 μg/ml + compound 2 μg/ml,1
same,extent of growth (numerical code),oxacillin 8 μg/ml + compound 4 μg/ml,0
same,extent of growth (numerical code),oxacillin 8 μg/ml + compound 8 μg/ml,0
same,extent of growth (numerical code),oxacillin 8 μg/ml + compound 16 μg/ml,0
same,extent of growth (numerical code),oxacillin 16 μg/ml + compound 1 μg/ml,2
same,extent of growth (numerical code),oxacillin 16 μg/ml + compound 2 μg/ml,0
same,extent of growth (numerical code),oxacillin 16 μg/ml + compound 4 μg/ml,0
same,extent of growth (numerical code),oxacillin 16 μg/ml + compound 8 μg/ml,0
same,extent of growth (numerical code),oxacillin 16 μg/ml + compound 16 μg/ml,0
same,extent of growth (numerical code),oxacillin 32 μg/ml + compound 1 μg/ml,0
same,extent of growth (numerical code),oxacillin 32 μg/ml + compound 2 μg/ml,0
same,extent of growth (numerical code),oxacillin 32 μg/ml + compound 4 μg/ml,0
same,extent of growth (numerical code),oxacillin 32 μg/ml + compound 8 μg/ml,0
same,extent of growth (numerical code),oxacillin 32 μg/ml + compound 16 μg/ml,0
same,extent of growth (numerical code),oxacillin 64 μg/ml + compound 1 μg/ml,0
same,extent of growth (numerical code),oxacillin 64 μg/ml + compound 2 μg/ml,0
same,extent of growth (numerical code),oxacillin 64 μg/ml + compound 4 μg/ml,0
same,extent of growth (numerical code),oxacillin 64 μg/ml + compound 8 μg/ml,0
same,extent of growth (numerical code),oxacillin 64 μg/ml + compound 16 μg/ml,0
